Measured values published in ChEMBL document CHEMBL2150874, “Novel and selective inhibitors of histone deacetylase: patent highlight” (ACS Med Chem Lett, 2012).

Columns and labels:
[1] = system: PC-12; assay: Neuroprotective activity in rat PC12 cells at 1 uM by lactate dehydrogenase assay; format: functional
[2] = target: T1, Protein deacetylase HDAC6 (Homo sapiens, UniProt Q9UBN7); assay: Inhibition of HDAC6
T1 sequence (Q9UBN7 whole entry): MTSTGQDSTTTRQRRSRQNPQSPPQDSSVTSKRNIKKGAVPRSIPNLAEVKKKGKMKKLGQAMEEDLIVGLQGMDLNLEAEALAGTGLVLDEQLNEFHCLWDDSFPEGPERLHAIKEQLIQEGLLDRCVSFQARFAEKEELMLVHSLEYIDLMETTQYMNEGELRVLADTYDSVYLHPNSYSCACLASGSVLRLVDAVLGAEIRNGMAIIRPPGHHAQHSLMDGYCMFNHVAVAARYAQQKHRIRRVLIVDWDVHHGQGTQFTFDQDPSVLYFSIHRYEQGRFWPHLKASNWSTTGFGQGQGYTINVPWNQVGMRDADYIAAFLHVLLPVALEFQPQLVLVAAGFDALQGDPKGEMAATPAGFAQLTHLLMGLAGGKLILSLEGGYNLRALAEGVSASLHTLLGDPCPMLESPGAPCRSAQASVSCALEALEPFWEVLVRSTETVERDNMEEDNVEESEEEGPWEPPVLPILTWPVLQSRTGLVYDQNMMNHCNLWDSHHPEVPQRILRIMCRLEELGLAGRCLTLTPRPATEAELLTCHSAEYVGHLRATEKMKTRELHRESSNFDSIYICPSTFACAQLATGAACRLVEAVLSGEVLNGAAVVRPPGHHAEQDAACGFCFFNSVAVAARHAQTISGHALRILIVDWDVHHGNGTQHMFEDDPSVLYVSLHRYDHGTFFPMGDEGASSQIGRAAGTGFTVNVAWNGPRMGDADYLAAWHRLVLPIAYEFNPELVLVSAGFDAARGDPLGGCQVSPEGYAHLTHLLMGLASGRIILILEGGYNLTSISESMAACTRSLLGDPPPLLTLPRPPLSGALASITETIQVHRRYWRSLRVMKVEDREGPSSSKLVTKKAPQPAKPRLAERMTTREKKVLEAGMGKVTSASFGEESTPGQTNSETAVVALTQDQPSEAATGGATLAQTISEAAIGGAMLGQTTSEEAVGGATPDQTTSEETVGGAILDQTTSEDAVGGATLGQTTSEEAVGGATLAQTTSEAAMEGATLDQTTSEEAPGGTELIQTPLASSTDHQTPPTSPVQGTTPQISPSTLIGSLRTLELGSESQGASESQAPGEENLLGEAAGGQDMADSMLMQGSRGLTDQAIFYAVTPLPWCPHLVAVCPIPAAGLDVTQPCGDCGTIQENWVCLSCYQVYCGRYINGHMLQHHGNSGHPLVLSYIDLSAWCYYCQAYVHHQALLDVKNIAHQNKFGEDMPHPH

IC50 [2] | SMILES | Activity [1]
< 1 nM | COc1ccc(/C=C(/C(=O)N2CCc3ccc(C(=O)NO)cc3C2)c2ccccc2F)cc1OC | 100%
< 1 nM | COc1ccc(/C=C(/C(=O)N2CCc3ccc(C(=O)NO)cc3C2)c2ccccc2)cc1 | 55%
< 1 nM | Cc1ccc(/C(=C\c2ccccc2)C(=O)N2CCc3ccc(C(=O)NO)cc3C2)cc1 | 68.7%
< 1 nM | O=C(NO)c1ccc2c(c1)CN(C(=O)/C(=C/c1ccccc1)c1ccccc1)CC2 | 36.6%
< 1 nM | COc1ccc(/C=C(/C(=O)N2CCc3ccc(C(=O)NO)cc3C2)c2ccc(F)cc2)c(OC)c1 | 38%
< 1 nM | O=C(NO)c1ccc2c(c1)CN(C(=O)/C(=C/c1cccs1)c1ccc(F)cc1)CC2 | 71.8%
< 1 nM | O=C(NO)c1ccc2c(c1)CN(C(=O)/C(=C/c1ccc(F)cc1F)c1ccc(F)cc1)CC2 | 56%
< 1 nM | Cc1ccc(/C(=C\c2ccc(F)cc2)C(=O)N2CCc3ccc(C(=O)NO)cc3C2)cc1 | 100%
< 1 nM | O=C(NO)c1ccc2c(c1)CN(C(=O)/C(=C/c1ccccc1)c1cccc(Cl)c1)CC2 | 77.8%
< 1 nM | COc1cc(/C=C(/C(=O)N2CCc3ccc(C(=O)NO)cc3C2)c2ccc(F)cc2)ccc1F | 67.2%
